Laboratory results reported in patent US20240148664A1, “LIPID AND COMPOSITION” (SOGO PHARMACEUTICAL CO., LTD., priority 2021, published 2024).

system: HT1080-EGFP (human/fibrosarcoma) cells; experiment: Evaluation of toxicity: CCK-8 assay; type: cell-based; conditions: lipid nanoparticle containing siRNA; absorbance relative to control cells without lipid nanoparticle set at 1.00
Procedure: A. Provision of Cells • (i) A liquid medium (DMEM/Ham's F12, FBS+, P/S+) (FBS: fetal bovine serum, P/S: antibiotic) was taken out from a refrigerator and temperature-controlled in an incubator set at 37° C. • (ii) A cryotube containing the cells was taken out from a −80° C. freezer and thawed at once in an incubator set at 37° C. • (iii) A stock solution of the thawed cells was collected in a capped test tube. • (iv) The tube containing the cells was washed with the liquid medium, and the wash was also collected in the test tube. • (v) The tube was subjected to a centrifuge to precipitate the cells. • (vi) The supernatant was aspirated, and the liquid medium was added and gently tapped to disperse the cells. • (vii) A small amount of the cells-dispersed liquid medium was collected, and the number of cells was observed and counted under a microscope. • (viii) The cells were seeded in a 24-well plate such that the number of cells was 2×10^4 cells per well. For the plate for an LDH assay described later, the cells were seeded in a 96-well plate such that the number of cells was 4×10^3 cells per well. • (ix) The 24-well plate or the 96-well plate was placed in an incubator, and the cells were cultured for 24 hours under conditions of 37° C. and 5% CO2.
The produced lipid nanoparticles were introduced into cells. • (i) Fetal bovine serum (FBS) was added to a liquid medium (FBS-, P/S-) temperature-controlled as in (i) of A above, in such a way as to reach 10%. • (ii) A 24-well plate was taken out from an incubator, and the liquid medium supernatant in the 24-well plate was aspirated and washed with phosphate buffered saline (PBS). • (iii) 400 μL of the liquid medium produced in (i) above was added to the washed 24-well plate. In addition, 100 μL of an LNP solution having an adjusted concentration was added. • (iv) The 24-well plate was placed in the incubator, and the cells were cultured (for 24 hours). • (v) After 24 hours, the liquid medium supernatant in the 24-well plate was aspirated, and 500 μL of a liquid medium containing 10% FBS (FBS+/P/S+) was added. • (vi) The 24-well plate was placed in the incubator, and the cells were cultured for 24 hours under conditions of 37° C. and 5% CO2.
For Examples 1 to 9, a CCK-8 assay or an LDH assay was carried out to measure the metabolic activity of viable cells and relatively quantify the number of surviving cells to evaluate the toxicity of lipid nanoparticles.
(a) CCK-8 Assay • (i) Fetal bovine serum (FBS) and a viable cell counting kit (manufactured by DOJINDO LABORATORIES, Cell Count Kit-8) was added to a liquid medium (FBS-, P/S-) temperature-controlled as in (i) of A above, such that FBS was 10% and the kit was 10%. • (ii) A 24-well plate was taken out from an incubator. The liquid medium was removed, and 315 μL of the liquid medium containing the viable cell counting kit produced in (i) above was added. • (iii) The liquid medium was aged for 1 hour in the incubator. • (iv) The 24-well plate was taken out, and the absorbance was measured under conditions of a measurement wavelength of 450 nm and a target wavelength of 630 nm with a plate reader (manufactured by TECAN, Infinite M200). The absorbance was calculated with the absorbance of control cells to which no lipid nanoparticle was added set at 1.00. When the obtained value was 0.80 or more and 1.00 or less, a rating of double-circle (excellent) was given, when the obtained value was 0.50 or more and less than 0.80, a rating of circle (good) was given, when the obtained value was 0.20 or more and less than 0.50, a rating of triangle (fair) was given, and when the obtained value was less than 0.20, a rating of X-mark (poor) was given.

Q: Which “CCK Assay” value does the source give for `CCCCCCCC/C=C\CCCCCCCCC(CCCCCCC/C=C\CCCCCCCC)OC(=O)C(CC(=O)O)NC(=O)C(N)CCCNC(=N)N` (stereo not drawn) [Example 1, 3-(2-amino-5-guanidinopentanamido)-4-(((9Z,27Z)-hexatriaconta-9,27-dien-18-yl)oxy)-4-oxobutanoic acid] here?
A: ⊚ (When the obtained value was 0.80 or more and 1.00 or less, a rating of double-circle (excellent) was given)

Q: How did the “CCK Assay” value turn out when `CCCCCCCC/C=C\CCCCCCCCC(CCCCCCC/C=C\CCCCCCCC)OC(=O)C(CCC(=O)O)NC(=O)C(N)CCCNC(=N)N` (stereo not drawn) [Example 2, 4-(2-amino-5-guanidinopentanamido)-5-(((9Z,27Z)-hexatriaconta-9,27-dien-18-yl)oxy)-5-oxopentanoic acid] was run?
A: ⊚ (When the obtained value was 0.80 or more and 1.00 or less, a rating of double-circle (excellent) was given)

Q: Which “CCK Assay” value does the source give for `CCCCCCCC/C=C\CCCCCCCCC(CCCCCCC/C=C\CCCCCCCC)OC(=O)C(CO)NC(=O)C(N)CCCNC(=N)N` [Example 4, (9Z,27Z)-hexatriaconta-9,27-dien-18-yl (2S)-2-((S)-2-amino-5-guanidinopentanamido)-3-hydroxypropionate] here?
A: ◯ (when the obtained value was 0.50 or more and less than 0.80, a rating of circle (good) was given)
